Results published in US8106048B2, “Heterocyclic NF-κB inhibitors” (4SC AG, priority 2004, dated 2012).

Each compound was assayed on A549-NF-κB-SEAP reporter cells (assay: Inhibition of NF-κB-induced inflammation: […] NINA Instant Assay, TNF-α stimulated SEAP reporter). Settings: % inhibition classes.
Format: cell-based
Description: For the determination of anti-inflammatory activity of the compounds the […]® NINA Instant Assay from Cell Culture Service GmBH was used. This assay is based on […] recombinant A549-NF-κB-SEAP reporter cells preceded in 96-well flat bottom plates. As the transfected reportergen for SEAP (secreted embryonic alkaline phosphatase) is under transcriptional control of a NF-κB-responsive element, the expression of this reporter is activated upon stimulation with TNF-α. SEAP secretion into the culture supernatant can be detected by the chemiluminescent substrate CSPD®. Test compounds that inhibit the NF-κB activation show reduced SEAP activity and reduced luminescent readout.
Following 18 h of reactivation at 37° C., 5% CO2 and 90% relative humidity, the cells were incubated with 0.01 up to 100 μM of test compound for 4.5 h before stimulation with 2 ng/ml TNF-α. After stimulation with TNF-α for 22 h endogenous phosphatases were inactivated and CSPD® substrate was supplied for 40 min. SEAP activity then was quantified by measuring luminescence as relative light units (RLU) using a Tecan Ultra reader. Each data point was recorded in quadruplicates and EC50 values were calculated via fitting function and the Microsoft Excel Solver.
COc1nc(OC)nc(N2CCN(C(=O)c3csc(C4CCN(Cc5ccc(Br)cc5)CC4)n3)CC2)n1 [compound 121] was tested, and the “Biological activity (inhibition in the NF-κB inflammation assay)” value was “+ (“+” stands for 50-80% inhibition)”.
O=C(c1csc(N2CCN(c3cccc(C(F)(F)F)c3)CC2)n1)N1CCN(c2cccc(C(F)(F)F)c2)CC1 [compound 67] was tested, and the “Biological activity (inhibition in the NF-κB inflammation assay)” value was “+ (“+” stands for 50-80% inhibition)”.
For O=C(c1csc(C2CCN(Cc3ccncc3)CC2)n1)N1CCN(c2cccc(C(F)(F)F)c2)CC1 [compound 107], the “Biological activity (inhibition in the NF-κB inflammation assay)” value was “+ (“+” stands for 50-80% inhibition)”.
In the case of CC(C)(C)OC(=O)N1CCC(C(=O)N2CCN(c3cccc(C(F)(F)F)c3)CC2)CC1 [compound 125], the “Biological activity (inhibition in the NF-κB inflammation assay)” value is reported as “+ (“+” stands for 50-80% inhibition)”.
N=C(NC(=O)c1csc(C2CCN(C(=O)C(c3ccccc3)c3ccccc3)CC2)n1)Nc1nc2ccccc2[nH]1 [compound 93] was tested, and the “Biological activity (inhibition in the NF-κB inflammation assay)” value was “+ (“+” stands for 50-80% inhibition)”.
In the case of Cn1nc(C(C)(C)C)cc1C(=O)N1CCC(c2nc(C(=O)N3CCN(c4cccc(C(F)(F)F)c4)CC3)cs2)CC1 [compound 216], the “Biological activity (inhibition in the NF-κB inflammation assay)” value is reported as “++ (“++” means 80-90%)”.
In the case of O=C(CCC1CCCC1)NCC1CCN(c2nc(C(=O)N3CCN(c4cccc(C(F)(F)F)c4)CC3)cs2)CC1 [compound 100], the “Biological activity (inhibition in the NF-κB inflammation assay)” value is reported as “+ (“+” stands for 50-80% inhibition)”.
For COc1ccc(Cl)cc1S(=O)(=O)N1CCC(c2nc(C(=O)N3CCN(c4cccc(C(F)(F)F)c4)CC3)cs2)CC1 [compound 202], the “Biological activity (inhibition in the NF-κB inflammation assay)” value was “++ (“++” means 80-90%)”.
O=C(Nc1cc(F)cc2c1OCCO2)N1CCC(c2nc(C(=O)N3CCN(c4cccc(C(F)(F)F)c4)CC3)cs2)CC1 [compound 135] was tested, and the “Biological activity (inhibition in the NF-κB inflammation assay)” value was “+ (“+” stands for 50-80% inhibition)”.
For O=C(c1csc(C2CCN(C(=O)c3ccccc3OC(F)(F)F)CC2)n1)N1CCN(c2cccc(Cl)c2)CC1 [compound 151], the “Biological activity (inhibition in the NF-κB inflammation assay)” value was “+ (“+” stands for 50-80% inhibition)”.
For O=C(c1csc(C2CCN(C(=O)c3ccccc3OC(F)(F)F)CC2)n1)N1CCC(n2nnc3ccccc32)CC1 [compound 111], the “Biological activity (inhibition in the NF-κB inflammation assay)” value was “+ (“+” stands for 50-80% inhibition)”.
CC(=O)c1ccc(N2CCN(c3nc(C(=O)N4CCN(c5cccc(C(F)(F)F)c5)CC4)cs3)CC2)cc1 [compound 66] was tested, and the “Biological activity (inhibition in the NF-κB inflammation assay)” value was “++ (“++” means 80-90%)”.
For O=C(c1csc(C2CCN(Cc3ccc(OC(F)(F)F)cc3)CC2)n1)N1CCN(c2cccc(C(F)(F)F)c2)CC1 [compound 172], the “Biological activity (inhibition in the NF-κB inflammation assay)” value was “+ (“+” stands for 50-80% inhibition)”.
For COC(=O)C1Cc2ccc(O)cc2CN1C(=O)c1csc(C2CCN(C(=O)Cc3ccc(F)cc3)CC2)n1 (centres unmarked) [compound 179], the “Biological activity (inhibition in the NF-κB inflammation assay)” value was “+ (“+” stands for 50-80% inhibition)”.
CSc1nccc(N2CCN(C(=O)c3csc(C4CCN(C(=O)c5ccccc5OC(F)(F)F)CC4)n3)CC2)n1 [compound 124] was tested, and the “Biological activity (inhibition in the NF-κB inflammation assay)” value was “+ (“+” stands for 50-80% inhibition)”.
In the case of COc1nc(OC)nc(N2CCN(C(=O)c3csc(C4CCN(Cc5ccccc5)CC4)n3)CC2)n1 [compound 120], the “Biological activity (inhibition in the NF-κB inflammation assay)” value is reported as “+ (“+” stands for 50-80% inhibition)”.
For N#Cc1ccc(CN2CCC(c3nc(C(=O)N4CCN(c5cccc(C(F)(F)F)c5)CC4)cs3)CC2)cc1 [compound 166], the “Biological activity (inhibition in the NF-κB inflammation assay)” value was “+ (“+” stands for 50-80% inhibition)”.
For O=C(c1csc(N2CCN(c3ccccc3)CC2)n1)N1CCN(c2cccc(C(F)(F)F)c2)CC1 [compound 68], the “Biological activity (inhibition in the NF-κB inflammation assay)” value was “+ (“+” stands for 50-80% inhibition)”.
With O=C(NCCc1cccs1)N1CCC(c2nc(C(=O)N3CCN(c4cccc(C(F)(F)F)c4)CC3)cs2)CC1 [compound 77] the “Biological activity (inhibition in the NF-κB inflammation assay)” value was “+++ (“+++” stands for 90-100% inhibition)”.
O=C(c1csc(C2CCN(S(=O)(=O)c3cc(C(F)(F)F)cc(C(F)(F)F)c3)CC2)n1)N1CCN(c2cccc(C(F)(F)F)c2)CC1 [compound 201] was tested, and the “Biological activity (inhibition in the NF-κB inflammation assay)” value was “++ (“++” means 80-90%)”.
O=C(Cc1ccc(F)cc1)N1CCC(c2nc(C(=O)N3CCc4ccccc4C3)cs2)CC1 [compound 163] was tested, and the “Biological activity (inhibition in the NF-κB inflammation assay)” value was “+ (“+” stands for 50-80% inhibition)”.
With O=C(O)c1cc(Cl)c(Cl)cc1C(=O)N1CCC(c2nc(C(=O)N3CCN(c4cccc(C(F)(F)F)c4)CC3)cs2)CC1 [compound 187] the “Biological activity (inhibition in the NF-κB inflammation assay)” value was “+ (“+” stands for 50-80% inhibition)”.
For COc1nc(OC)nc(N2CCC(c3nc(C(=O)N4CCN(c5cccc(C(F)(F)F)c5)CC4)cs3)CC2)n1 [compound 176], the “Biological activity (inhibition in the NF-κB inflammation assay)” value was “+ (“+” stands for 50-80% inhibition)”.
In the case of CNc1ccc(Cl)cc1C1c2ccccc2CCN1C(=O)c1csc(C2CCN(C(=O)c3ccccc3OC(F)(F)F)CC2)n1 (centres unmarked) [compound 150], the “Biological activity (inhibition in the NF-κB inflammation assay)” value is reported as “++ (“++” means 80-90%)”.
O=C(O)C1CCCCC1C(=O)N1CCC(c2nc(C(=O)N3CCN(c4cccc(C(F)(F)F)c4)CC3)cs2)CC1 (centres unmarked) [compound 189] was tested, and the “Biological activity (inhibition in the NF-κB inflammation assay)” value was “+ (“+” stands for 50-80% inhibition)”.
COC(=O)CC1c2ccccc2CCN1C(=O)c1csc(C2CCN(C(=O)Cc3ccc(F)cc3)CC2)n1 (centres unmarked) [compound 227] was tested, and the “Biological activity (inhibition in the NF-κB inflammation assay)” value was “+ (“+” stands for 50-80% inhibition)”.
With O=C(O)c1cccnc1C(=O)N1CCC(c2nc(C(=O)N3CCN(c4cccc(C(F)(F)F)c4)CC3)cs2)CC1 [compound 183] the “Biological activity (inhibition in the NF-κB inflammation assay)” value was “+ (“+” stands for 50-80% inhibition)”.
For O=C(c1csc(C2CCN(Cc3cc(C(F)(F)F)cc(C(F)(F)F)c3)CC2)n1)N1CCN(c2cccc(C(F)(F)F)c2)CC1 [compound 175], the “Biological activity (inhibition in the NF-κB inflammation assay)” value was “+ (“+” stands for 50-80% inhibition)”.
In the case of O=C(Nc1nc(C(=O)N2CCN(C(c3ccccc3)c3ccccc3)CC2)cs1)c1ccccc1OC(F)(F)F [compound 58], the “Biological activity (inhibition in the NF-κB inflammation assay)” value is reported as “++ (“++” means 80-90%)”.
In the case of O=C(c1csc(C2CCN(C(=O)c3ccccc3OC(F)(F)F)CC2)n1)N(Cc1ccc(Cl)cc1)Cc1ccc(Cl)cc1 [compound 110], the “Biological activity (inhibition in the NF-κB inflammation assay)” value is reported as “+ (“+” stands for 50-80% inhibition)”.
In the case of COc1nc(OC)nc(N2CCN(C(=O)c3csc(C4CCN(C(=O)c5ccccc5OC(F)(F)F)CC4)n3)CC2)n1 [compound 127], the “Biological activity (inhibition in the NF-κB inflammation assay)” value is reported as “+ (“+” stands for 50-80% inhibition)”.
O=C(O)C1=C(C(=O)N2CCC(c3nc(C(=O)N4CCN(c5cccc(C(F)(F)F)c5)CC4)cs3)CC2)CCC1 [compound 188] was tested, and the “Biological activity (inhibition in the NF-κB inflammation assay)” value was “+ (“+” stands for 50-80% inhibition)”.
With O=C(c1csc(C2CCN(S(=O)(=O)c3ccc(F)cc3Cl)CC2)n1)N1CCN(c2cccc(C(F)(F)F)c2)CC1 [compound 195] the “Biological activity (inhibition in the NF-κB inflammation assay)” value was “+ (“+” stands for 50-80% inhibition)”.
O=C(c1csc(C2CCN(C(=O)c3ccccc3OC(F)(F)F)CC2)n1)N1CCN(c2ncnc3nc[nH]c23)CC1 [compound 129] was tested, and the “Biological activity (inhibition in the NF-κB inflammation assay)” value was “+ (“+” stands for 50-80% inhibition)”.
With Cc1nnsc1C(=O)N1CCC(c2nc(C(=O)N3CCN(c4cccc(C(F)(F)F)c4)CC3)cs2)CC1 [compound 221] the “Biological activity (inhibition in the NF-κB inflammation assay)” value was “+ (“+” stands for 50-80% inhibition)”.
O=C(c1csc(N2CCN(C(=O)c3ccccc3OC(F)(F)F)CC2)n1)N1CCN(c2cccc(C(F)(F)F)c2)CC1 [compound 39] was tested, and the “Biological activity (inhibition in the NF-κB inflammation assay)” value was “+++ (“+++” stands for 90-100% inhibition)”.
In the case of O=C(c1csc(C2CCN(S(=O)(=O)c3ccc(Br)s3)CC2)n1)N1CCN(c2cccc(C(F)(F)F)c2)CC1 [compound 203], the “Biological activity (inhibition in the NF-κB inflammation assay)” value is reported as “+ (“+” stands for 50-80% inhibition)”.
With O=C(Cc1ccc(F)cc1)N1CCC(c2nc(C(=O)N3CCN(c4ccccc4)CC3)cs2)CC1 [compound 180] the “Biological activity (inhibition in the NF-κB inflammation assay)” value was “+ (“+” stands for 50-80% inhibition)”.
O=C(O)N1CCC(c2nc(C(=O)N3CCN(c4cccc(C(F)(F)F)c4)CC3)cs2)CC1 [compound 113] was tested, and the “Biological activity (inhibition in the NF-κB inflammation assay)” value was “+ (“+” stands for 50-80% inhibition)”.
In the case of O=C(c1csc(N2CCN(Cc3ccccc3)CC2)n1)N1CCN(C(c2ccccc2)c2ccccc2)CC1 [compound 71], the “Biological activity (inhibition in the NF-κB inflammation assay)” value is reported as “+++ (“+++” stands for 90-100% inhibition)”.
For O=C(Nc1cc(F)cc2c1OCCO2)N1CCC(c2nc(C(=O)N3CCN(c4cccc(C(F)(F)F)c4)CC3)cs2)CC1 [compound 74], the “Biological activity (inhibition in the NF-κB inflammation assay)” value was “++ (“++” means 80-90%)”.
For O=C(c1csc(C2CCN(CCC(c3ccccc3)c3ccccc3)CC2)n1)N1CCN(c2cccc(C(F)(F)F)c2)CC1 [compound 35], the “Biological activity (inhibition in the NF-κB inflammation assay)” value was “+++ (“+++” stands for 90-100% inhibition)”.
O=C(c1csc(C2CCN(S(=O)(=O)c3ccccc3Br)CC2)n1)N1CCN(c2cccc(C(F)(F)F)c2)CC1 [compound 196] was tested, and the “Biological activity (inhibition in the NF-κB inflammation assay)” value was “+ (“+” stands for 50-80% inhibition)”.
COc1nc(OC)nc(N2CCN(C(=O)c3csc(C4CCNCC4)n3)CC2)n1 [compound 152] was tested, and the “Biological activity (inhibition in the NF-κB inflammation assay)” value was “++ (“++” means 80-90%)”.

Same assay, conditions: inhibition classes
In the case of O=C(Cc1ccc(F)cc1)N1CCC(c2nc(C(=O)N3CCN(c4cccc(Cl)c4)CC3)cs2)CC1 [compound 238], the “Biological activity (inhibition in the NF-κB inflammation assay)” value is reported as “+ (“+” stands for 50-80% inhibition)”.
For O=C(Cc1ccc(F)cc1)N1CCC(c2nc(C(=O)N3CCN(c4ccccn4)CC3)cs2)CC1 [compound 237], the “Biological activity (inhibition in the NF-κB inflammation assay)” value was “+ (“+” stands for 50-80% inhibition)”.
In the case of COc1cc(NC(=O)N2CCC(c3nc(C(=O)N4CCN(c5cccc(C(F)(F)F)c5)CC4)cs3)CC2)cc(OC)c1OC [compound 240], the “Biological activity (inhibition in the NF-κB inflammation assay)” value is reported as “++ (“++” means 80-90%)”.
